Laboratory results published in ChEMBL document CHEMBL1126825, “4-Methoxy-2-methyltetrahydropyrans: chiral leukotriene biosynthesis inhibitors, related to ICI D2138, which display enantioselectivity” (J Med Chem, 1993).

Legend:
Mus musculus = organism: Mus musculus; assay: In vitro inhibition of LTC4 biosynthesis in plasma protein-free cultures of zymosan-stimulated mouse macrophages; type: functional
Homo sapiens = organism: Homo sapiens; assay: In vitro inhibition of LTB4 biosynthesis in A-23187-stimulated human whole blood; type: functional

| IC50 (Mus musculus) [nM] | IC50 (Homo sapiens) [nM] | SMILES |
| --- | --- | --- |
| 0.4 | – | CO[C@]1(c2cc(F)cc(OCc3ccc4c(ccc(=O)n4C)c3)c2)CCO[C@@H](C)C1 |
| 9 | 670 | CO[C@@]1(c2cc(F)cc(OCc3ccc4c(ccc(=O)n4C)c3)c2)CCO[C@H](C)C1 |
| 8 | 140 | CO[C@]1(c2cc(F)cc(OCc3ccc4c(ccc(=O)n4C)c3)c2)CCO[C@H](C)C1 |
| 60 | 1760 | CO[C@@]1(c2cc(F)cc(OCc3ccc4c(ccc(=O)n4C)c3)c2)CCO[C@@H](C)C1 |
